Assays:
[1] = target: DGAT2 (Homo sapiens (Human), UniProt Q96PD7); experiment: IC50 values for DGAT2 inhibitors in human hepatocytes; type: cell-based; conditions: geometric mean, N=10; cryopreserved human hepatocytes, DGAT1 inhibitor at 3 μM present, [1,3-14C]-glycerol incorporation
Method: After 24 hours overnight recovery period, the cells were overlayed with media containing 250 μg/ml Matrigel (BD Biosciences, San Jose, Calif.). The following day, media was aspirated and replaced with serum-free Williams Media E (Life Technologies, Grand Island, N.Y.) containing 400 μM sodium dodecanoate (Sigma-Aldrich, St. Louis, Mo.). […] After separation, radiolabeled lipids were visualized using a Molecular Dynamics' PhosphorImager system.

[2] = target: human DGAT2 (hDGAT2) (Homo sapiens (Human), UniProt Q96PD7); experiment: In vitro DGAT2 assay, determination of IC50 values for DGAT2 inhibitors; type: biochemical
Method: Recombinant baculovirus for the FLAG-tagged hDGAT2 was generated in SF9 insect cells using Bac-to-Bac baculovirus expression system (Invitrogen) according to the manufacturer's protocol. For the expression of hDGAT2, SF9 cells (20 L) grown in Sf90011 media were infected with hDGAT2 baculovirus at a multiplicity of infection of 1 in a Wave Bioreactor System 20/50P wave bag (GE Healthcare). After 40 hours of infection, the cells were then harvested by centrifugation at 5,000×g. The cell pellets were washed by resuspending in phosphate buffered saline (PBS) and collected by centrifugation at 5,000×g. The cell paste was flash frozen in liquid N2 and stored at −80° C. until needed. All operations below were at 4° C. unless otherwise noted. The cells were resuspended in lysis buffer (50 mM Tris-HCl, pH 8.0, 250 mM sucrose) including 1 mM ethylenediaminetetraacetic acid (EDTA) and the complete protease inhibitor cocktail (Roche Diagnostics) at a ratio of 3 ml buffer per 1 g cell paste. The cells were lysed by dounce homogenizer. The cell debris was removed by centrifugation at 1,000×g for 20 min, and the supernatant was centrifuged at 100,000×g for 1 hour. The resulting pellet was rinsed three times by filling ultracentrifuge tubes to the top with ice cold PBS before decanting. The washed pellet was resuspended with gentle stirring for 1 hour in lysis buffer containing 8 mM 3-[(3-cholamidopropyl)dimethylammonio]-1-propanesulfonate (CHAPS) at a ratio of 1 mL buffer per 1 g of original cell paste and centrifuged again at 100,000×g for 1 hour. The resulting supernatant was aliquotted, flash frozen in liquid N2, and stored at −80° C. until use.
To 1 μL of compounds dissolved in 100% DMSO and spotted at the bottom of each well, 5 μL of 0.04% bovine serum albumin (BSA) (fatty acid free, Sigma Aldrich) was added and the mixture was incubated at room temperature for 15 minutes. hDGAT2 membrane fractions were diluted in 100 mM Hepes-NaOH, pH 7.4, 20 mM MgCl2 containing 200 nM methyl arachidonyl fluorophosphonate (Cayman Chemical; dried from ethyl acetate stock solution under argon gas and dissolved in DMSO as 5 mM stock). 10 μL of this enzyme working solution was added to the plates and incubation continued for 2 hours at room temperature. DGAT2 reactions were initiated by the addition of 4 μL of substrates containing 30 μM [1-^14C]decanoyl-CoA (custom-synthesized by Perkin Elmer, 50 mCi/mmol) and 125 μM 1,2-didecanoyl-sn-glycerol (Avanti Polar Lipids) dissolved in 12.5% acetone. The reaction mixtures were incubated at room temperature for 40 min and the reactions were stopped by addition of 5 μL of 1% H3PO4. After the addition of 45 μL MicroScint-E (Perkin-Elmer), plates were sealed with Top Seal-A covers (Perkin-Elmer) and phase partitioning of substrates and products was achieved using a HT-91100 microplate orbital shaker (Big Bear Automation, Santa Clara, Calif.). Plates were centrifuged at 2,000×g for 1 minute in an Allegra 6R Centrifuge (Beckman Coulter) and then were sealed again with fresh covers before reading in a 1450 Microbeta Wallac Trilux Scintillation Counter (Perkin Elmer). DGAT2 activity was measured by quantifying the generated product [^14C]tridecanoylglycerol in the upper organic phase.
Inhibitors were tested at eleven different concentrations to generate IC50 values for each compound.

[3] = Metabolic clearance in HLM (hepatic clearance profile); type: in vitro ADME; conditions: human, human liver microsomes, read-out: Clint, app in HLM
[4] = geometric mean, hDGAT2 membrane fraction, [1-14C]decanoyl-CoA and 1,2-didecanoyl-sn-glycerol
[5] = Table 3, comparison with WO2015140658 Example 19.21

human DGAT2 (hDGAT2), sequence (Q96PD7 whole entry): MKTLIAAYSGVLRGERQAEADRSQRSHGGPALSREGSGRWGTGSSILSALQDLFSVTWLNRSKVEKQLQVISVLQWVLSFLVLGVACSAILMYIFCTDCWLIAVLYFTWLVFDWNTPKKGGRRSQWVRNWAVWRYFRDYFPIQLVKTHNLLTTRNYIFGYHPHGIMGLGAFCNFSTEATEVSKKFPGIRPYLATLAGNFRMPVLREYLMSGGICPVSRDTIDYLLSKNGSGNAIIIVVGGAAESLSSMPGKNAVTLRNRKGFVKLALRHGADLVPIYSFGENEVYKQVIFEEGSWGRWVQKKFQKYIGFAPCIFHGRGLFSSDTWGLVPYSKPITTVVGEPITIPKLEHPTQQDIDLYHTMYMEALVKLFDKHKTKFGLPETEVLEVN
DGAT2, sequence (Q96PD7 whole entry): as above

Structure (SMILES) | IC50 [2, 4] [nM] | also measured
CCOc1cccnc1Oc1cncc(-c2ncc(C(=O)N[C@H]3CCOC3)cn2)c1 [Example 1, (S)-2-(5-((3-ethoxypyridin-2-yl)oxy)pyridin-3-yl)-N-(tetrahydrofuran-3-yl)pyrimidine-5-carboxamide] | – | IC50 [1]: 2.8 nM
CCOc1cccnc1Oc1cncc(-c2ncc(C(=O)N[C@@H]3CCOC3)cn2)c1 [Example 2, (R)-2-(5-((3-Ethoxypyridin-2-yl)oxy)pyridin-3-yl)-N-(tetrahydrofuran-3-yl)pyrimidine-5-carboxamide] | 200 | –
CCOc1cccnc1Oc1cncc(-c2ncc(C(=O)NC3(C)CCS(=O)(=O)C3)cn2)c1 (centres unmarked) [Example 3.1, 2-(5-((3-ethoxypyridin-2-yl)oxy)pyridin-3-yl)-N-(3-methyl-1,1-dioxidotetrahydrothiophen-3-yl)pyrimidine-5-carboxamide] | 13.5 | –
CCOc1cccnc1Oc1cncc(-c2ncc(C(=O)NC(C)(CO)CO)cn2)c1 [Example 3.2, N-(1,3-dihydroxy-2-methylpropan-2-yl)-2-(5-((3-ethoxypyridin-2-yl)oxy)pyridin-3-yl)pyrimidine-5-carboxamide] | 83.6 | –
CCOc1cccnc1Oc1cncc(-c2ncc(C(=O)NC3CCS(=O)(=O)C3)cn2)c1 (centres unmarked) [Example 3.3, N-(1,1-dioxidotetrahydrothiophen-3-yl)-2-(5-((3-ethoxypyridin-2-yl)oxy)pyridin-3-yl)pyrimidine-5-carboxamide] | 196 | –
CCOc1cccnc1Oc1cncc(-c2ncc(C(=O)N[C@H]3CCOC3)nn2)c1 [Example 3.4, (S)-3-(5-((3-ethoxypyridin-2-yl)oxy)pyridin-3-yl)-N-(tetrahydrofuran-3-yl)-1,2,4-triazine-6-carboxamide] | 181 | –
CCOc1nccnc1Oc1cncc(-c2ncc(C(=O)NC(C)(C)CO)cn2)c1 [Example 3.5, 2-(5-((3-ethoxypyrazin-2-yl)oxy)pyridin-3-yl)-N-(1-hydroxy-2-methylpropan-2-yl)pyrimidine-5-carboxamide] | 238 | –
CCOc1cccnc1Oc1cncc(-c2ncc(C(=O)NC(C)(C)CS(C)(=O)=O)cn2)c1 [Example 3.6, 2-(5-((3-ethoxypyridin-2-yl)oxy)pyridin-3-yl)-N-(2-methyl-1-(methylsulfonyl)propan-2-yl)pyrimidine-5-carboxamide] | 35.4 | –
O=C(N[C@H]1CCOC1)c1cnc(-c2cncc(Oc3ncccc3OCCF)c2)nc1 [Example 3.7, (S)-2-(5-((3-(2-fluoroethoxy)pyridin-2-yl)oxy)pyridin-3-yl)-N-(tetrahydrofuran-3-yl)pyrimidine-5-carboxamide] | 66.5 | –
CCOc1cccnc1Oc1cncc(-c2ncc(C(=O)NC(C)(C)C#N)cn2)c1 [Example 4, N-(2-cyanopropan-2-yl)-2-(5-((3-ethoxypyridin-2-yl)oxy)pyridin-3-yl)pyrimidine-5-carboxamide] | 7.4 | –
CCOc1cccnc1Oc1cncc(-c2ncc(C(=O)NC(C)(C)CO)cn2)c1 [Example 5, 2-(5-((3-Ethoxypyridin-2-yl)oxy)pyridin-3-yl)-N-(1-hydroxy-2-methylpropan-2-yl)pyrimidine-5-carboxamide] | 14 | IC50 [2, 5]: 14 nM; microsomal CLint [3]: 18 µL/min/mg
CCOc1cccnc1Oc1cncc(-c2ncc(C(=O)NC(C)(C)CO)nn2)c1 [Example 7, 3-{5-[(3-ethoxypyridin-2-yl)oxy]pyridin-3-yl}-N-(1-hydroxy-2-methylpropan-2-yl)-1,2,4-triazine-6-carboxamide] | 83 | –
CCOc1cc(F)cnc1Oc1cncc(-c2ncc(C(=O)N[C@H]3CCOC3)cn2)c1 [Example 8, (S)-2-(5-((3-Ethoxy-5-fluoropyridin-2-yl)oxy)pyridin-3-yl)-N-(tetrahydrofuran-3-yl)pyrimidine-5-carboxamide] | 3.7 | –
CCOc1ccccc1O[C@@H]1CCCN(c2ncc(C(=O)NC(C)(C)CO)cn2)C1 [WO2015140658 Example 19.21, reference compound] | – | IC50 [2, 5]: 7.9 nM; microsomal CLint [3]: 121 µL/min/mg
